Data set [1] has as its target T1, HCV NS5B polymerase (NS5BCΔ21) (Hepatitis C virus genotype 1b, UniProt Q9WMX2).
T1 construct: HCV NS5B polymerase from HCV genotype 1b carrying an N-terminal GST-tag and C-terminal 21-amino acid truncation (NS5BCΔ21); made in house; host or cells: Escherichia coli
The data set is described as follows: RdRp assay with recombinant HCV NS5B polymerase. The class given is biochemical, HCV genotype 1b. Here is the method:
Recombinant HCV NS5B polymerase from HCV genotype 1b carrying an N-terminal GST-tag and C-terminal 21-amino acid truncation (NS5BCΔ21) was expressed in Escherichia coli and purified as previously described with some modifications. The colorimetric reverse transcriptase assay kit (Roche Applied Science) was applied to perform RdRp assay. The inhibition of HCV RdRp activity was determined by the amount of double-stranded RNA synthesized by the recombinant NS5BΔC21 in the presence of various test compounds using HCV 3′-UTR as a template.

A further data set addresses T2, HCV NS3/4A protease (Hepatitis C virus genotype 1b, UniProt Q9WMX2).
T2 construct: HCV-NS3/4A protease purified from E. coli; host or cells: E. coli
The data set is described as follows: biochemical. The class given is biochemical. As to conditions: FRET peptide substrate; read-out: HCV enzyme (IC50) HCV NS3/4A. Here is the method: The NS3/4A serine protease assay was performed using a HCV protease assay kit (SensoLyte, AnaSpec, Fremont, CA) according to the manufacturer's instructions. Briefly, HCV-NS3/4A protease purified from E. coli was mixed with the test compound in the assay buffer. After 15 min incubation at room temperature, EDANS/DABCYL-based fluorescence resonance energy transfer (FRET) peptide substrate solution was added and mixed. The FRET substrate was cleaved specifically by HCV NS3/4A protease, thereby liberating the C-terminal peptide-fluorophore fragment from the proximity quenching effect of the dark quencher, resulting in increase of fluorescence. The fluorescence intensity was measured immediately and continuously at excitation/emission at 340 nm and 490 nm.

Data set [2] has as its system HCV subgenomic replicon (genotype 1b) in Huh7 cells. The data set is described as follows: Anti-HCV assay in HCV replicon cells (qRT-PCR). The class given is cell-based, HCV genotype 1b. Conditions: Hepatitis C virus, Huh-7, 72 h, read-out: Inhibition of HCV RNA replication (EC50) CON1 (genotype 1b). Here is the method: Huh7 cells harboring HCV subgenomic replicon (genotype 1b) were maintained in the presence of 0.25 mg/mL G418 (Invitrogen, Carlsbad, CA). HCV replicon cells were seeded at a density of 1 × 10^4 cells/well in a 96-well plate and incubated at 37°C and 5% CO2. Following 24 h incubation, the culture medium was replaced with a medium containing serially diluted test compounds in the presence of 2% FBS and 1% DMSO. After cells were treated for 72 h with PGMS and triterpenoid saponins, total RNAs were extracted using a CellAmp Direct RNA Prep Kit (Korea Biomedical, Seoul, Korea). The HCV RNA levels were quantified by a quantitative real-time polymerase chain reaction (qRT-PCR) assay using IQ5 real-time PCR detection system (Bio-Rad, Hercules, CA, USA) with HCV-specific primers (5′-GACACTCCACCATAGATCACTC-3′ and 5′-CCC AAC ACT ACT CGG CTA G-3′) and probe (5′-FAM-CCCAAATCTCCAGGCATTGAGCGG-3′ BHQ-1). Results were normalized to glyceraldehyde-3-phosphate dehydrogenase gene (GAPDH). Anti-HCV activity was determined by HCV RNA levels in compound-treated cells as compared to mock-treated cells.

For data set [3], the system named is JFH1 viruses (HCV genotype 2a) in Huh7 cells. Put plainly: Anti-HCV assay in HCVcc-infected cells (qRT-PCR). The class given is cell-based. Conditions: Hepatitis C virus, Huh-7, 48 h, read-out: Inhibition of HCV RNA replication (EC50) JHF-1 (genotype 2a). Here is the method: Infectious JFH1 viruses (HCV genotype 2a) were generated as described previously. Huh7 cells were seeded in 24-well plates at a density of 5 × 10^4 cells per well. At 24 h after plating, cells were infected with JFH1 viruses for 2 h. After incubation, the supernatants were replaced with fresh medium. Increasing concentrations of PGMS and its triterpenoid saponins were added in a medium containing 2% DMSO, and cells were incubated at 37°C. At 48 h after infection, total RNAs were extracted and the HCV RNA levels were quantified by qRT-PCR assay. Anti-HCV activity was determined by HCV RNA levels in compound-treated cells as compared to mock-treated cells.

Data set [4] is described as follows: Cell viability assay (MTT). The class given is cell-based. Conditions: human, Huh7 cells, read-out: Cytotoxicity (CC50). Here is the method:
Cell viability was determined by the colorimetric 3-(4,5-dimethylthiazol-2-yl)-2,5-diphenyltetrazolium bromide (MTT) reagent (Promega Corporation) according to the manufacturer's instructions. The absorbance was detected at 570 nm using a Bio-Tek plate reader (Bio-Tek instrument, Weymouth, MA).

In data set [5] the test system is HCV replicon cells (genotype 1b). The data set is described as follows: In vitro combination studies (CalcuSyn combination index). Conditions: in combination with PGSM; for Combination Index at EC50 / Combination Index at EC75 / Combination Index at EC90: 72 h, CalcuSyn; for Effect of combination: CI < 1 synergistic. The class given is cell-based, HCV genotype 1b. Here is the method:
HCV Replicon cells were treated with various concentrations of inhibitors in twofold serial dilutions at a final dimethyl sulfoxide concentration of 1% including titrations of each of the compounds alone as reference controls. […] At three days after treatments, intracellular HCV RNA levels were determined by qRT-PCR. For the Loewe additive model, the experimental data were analyzed by using CalcuSyn (Biosoft, Ferguson, Mo.), a computer program based on the method of Chou and Talalay. A combination index (CI) value for each experimental combination was calculated by a quantitative measure of the degree of drug interaction in terms of additive effect (CI = 1), synergism (CI < 1), or antagonism (CI > 1) for a given endpoint of the effect measurement.

For data set [6], the system named is HCV subgenomic replicon cells (genotype 1b). Put plainly: Anti-HCV assay for 14 days. The class given is cell-based, HCV genotype 1b. The procedure:
HCV replicon cells were plated at 2 × 10^5 cells per well in a 6-well plate. Each compound was serially diluted in DMEM containing 10% FBS and 0.2% DMSO as reported previously. Culture media were replaced with fresh medium and compounds every 3 days. Cells were harvested at 3, 6, 9, and 14 days and intracellular HCV RNA levels were analyzed by qRT-PCR. The relative copy number of HCV RNA per cell was calculated by comparing RNAs in cells treated with each compound with those RNAs in cells treated with 0.2% DMSO.

The subject of data set [7] is Huh7 cells harboring HCV subgenomic replicon (genotype 1b). The data set is described as follows: Colony forming assay. The class given is cell-based, HCV genotype 1b. Conditions: 5 U/mL of IFN-α alone, three weeks, G418.
From the text: G418 was included in the media to provide selective pressure on HCV replicon cells. After three weeks of treatment, surviving cells were stained with crystal violet [23].
The mark [8] stands for this setting: read-out: HCV enzyme (IC50) HCV NS5B RdRp activity, recombinant NS5B, HCV 3′-UTR template.

≈ marks a conversion by molar mass, not a printed value. Like-named read-outs stand apart in the source and are kept apart here. Some results are limits rather than exact numbers.

As a reminder, the EC50 is the concentration that produces a half-maximal response. A word on the CC50: it is the concentration giving 50% cytotoxicity. On to `C[C@@H]1O[C@@H](O[C@H]2[C@H](OC(=O)[C@]34CCC(C)(C)C[C@H]3C3=CC[C@@H]5[C@@]6(C)C[C@H](O)[C@H](O[C@@H]7O[C@H](CO)[C@@H](O)[C@H](O[C@@H]8O[C@H](CO)[C@@H](O)[C@H](O)[C@H]8O)[C@H]7O)C(CO)(CO)[C@@H]6CC[C@@]5(C)[C@]3(C)C[C@H]4O)OC[C@H](O)[C@@H]2O)[C@H](O)[C@H](O)[C@H]1O[C@@H]1OC[C@@H](O)[C@H](O[C@@H]2OC[C@](O)(CO)[C@H]2O)[C@H]1O` [Platycodin D2, platycodin D2], for which the IC50 in data set [1] was 4.32 µM; on HCV NS3/4A protease it was over 72.1 µM. Further, the EC50 in data set [2] was 1.05 µg/mL (≈ 0.757 µM); in data set [3] it was 12 µg/mL (≈ 8.65 µM). Moreover, the half-maximal cytotoxic concentration (CC50) in data set [4] was 25 µg/mL (≈ 18 µM).

Take `C[C@@H]1O[C@@H](O[C@H]2[C@H](OC(=O)[C@]34CCC(C)(C)C[C@H]3C3=CC[C@@H]5[C@@]6(C)C[C@H](O)[C@H](O[C@@H]7O[C@H](CO)[C@@H](O)[C@H](O)[C@H]7O)C(CO)(CO)[C@@H]6CC[C@@]5(C)[C@]3(C)C[C@H]4O)OC[C@H](O)[C@@H]2O)[C@H](O)[C@H](O)[C@H]1O[C@@H]1OC[C@@H](O)[C@H](O[C@@H]2OC[C@](O)(CO)[C@H]2O)[C@H]1O` [Platycodin D, platycodin D]: the IC50 in data set [1] was 4.08 µM; at HCV NS3/4A protease, over 81.6 µM. In addition, the concentration giving a half-maximal response (EC50) in data set [2] turned out to be 0.35 µg/mL (≈ 0.286 µM); in data set [3], 3 µg/mL (≈ 2.45 µM). In data set [4], the CC50 was 25 µg/mL (≈ 20.4 µM).

Regarding `CC1OC(OC2C(OC(=O)C34CCC(C)(C)CC3C3=CCC5C6(C)CC(O)C(OC7OC(CO)C(O)C(OC8OC(CO)C(O)C(O)C8O)C7O)C(CO)(CO)C6CCC5(C)C3(C)CC4O)OC(CO)C2O)C(O)C(O)C1OC1OCC(O)C(O)C1O` (stereo not drawn) [Deapioplatycodin D2, deapioplatycodin D2], the IC50 in data set [1] (setting [8]) was 7.97 µM; at HCV NS3/4A protease it was over 79.7 µM. For the same compound, the concentration giving a half-maximal response (EC50) stood at 0.89 µg/mL (≈ 0.709 µM) in data set [2] and 8 µg/mL (≈ 6.37 µM) in data set [3]. The CC50 in data set [4] was found to be 100 µg/mL (≈ 79.7 µM).

Take `CC(C)(C)OC(=O)N[C@H]1CCCCC/C=C\[C@@H]2C[C@@]2(C(=O)NS(=O)(=O)C2CC2)NC(=O)[C@@H]2C[C@@H](OC(=O)N3Cc4cccc(F)c4C3)CN2C1=O` [R7227, Danoprevir]: in data set [5], the “Combination Index at EC50” value is reported as 0.72, the “Combination Index at EC75” value is given as 0.71, the “Combination Index at EC90” value is reported as 0.70 and the Effect of combination entry was “Synergistic”.

On to IFN-α, for which, in data set [5], the “Combination Index at EC50” value was 0.45, the “Combination Index at EC75” value is given as 0.39, the “Combination Index at EC90” value is recorded as 0.34 and the Effect of combination entry is “Synergistic”. Further, the “Reduction of HCV RNA levels” value in data set [6] (IFN-α 10 U/mL) was determined as 0.4 log10. Further, in data set [6] (IFN-α 50 U/mL), the “Reduction of HCV RNA levels” value is 0.8 log10. Besides, the “Reduction of HCV RNA levels” value in data set [6] (IFN-α 100 U/mL) stood at 1.5 log10. Further, the “Colony formation of HCV replicons” value in data set [7] is reported as “unable to inhibit colony formation”.

For the compound `CC1OC(OC2C(OC(=O)C34CCC(C)(C)CC3C3=CCC5C6(C)CC(O)C(OC7OC(COC8OC(CO)C(O)C(O)C8O)C(O)C(O)C7O)C(CO)(CO)C6CCC5(C)C3(C)CC4O)OC(CO)C2O)C(O)C(O)C1OC1OCC(O)C(OC2OCC(O)(CO)C2O)C1O` (stereo not drawn) [Platycodin D3, platycodin D3], the IC50 in data set [1] (setting [8]) was 5.77 µM; on HCV NS3/4A protease, over 72.1 µM. Moreover, the EC50 in data set [2] came to 2.33 µg/mL (≈ 1.68 µM); in data set [3], 27 µg/mL (≈ 19.5 µM). For the same compound, in data set [4], the CC50 turned out to be 100 µg/mL (≈ 72.1 µM).

Turning to `COC(=O)N[C@H](C(=O)N1CCC[C@H]1c1nc(-c2ccc(-c3ccc(-c4c[nH]c([C@@H]5CCCN5C(=O)[C@@H](NC(=O)OC)C(C)C)n4)cc3)cc2)c[nH]1)C(C)C` [BMS790052, Daclatasvir], in data set [5], the “Combination Index at EC50” value is recorded as 0.41, the “Combination Index at EC75” value was 0.42, the “Combination Index at EC90” value is listed as 0.44 and the Effect of combination result is given as “Synergistic”.

Values taken from PMC3893781, “Triterpenoid Saponins Isolated from Platycodon grandiflorum Inhibit Hepatitis C Virus Replication” (Evidence-based Complementary and Alternative Medicine : eCAM, 2013).
